In ChEMBL document CHEMBL3779843, “Discovery of a Potent Class I Protein Arginine Methyltransferase Fragment Inhibitor” (J Med Chem, 2016):
Active and inactive are the calls of the source. The rule behind the calls is not given here.

How the values were obtained:
[1] = target: T1, Protein arginine N-methyltransferase 6 (Homo sapiens, UniProt Q96LA8); assay: Inhibition of N-terminal hexa-His tagged human PRMT6 expressed in Sf9 cells using 24 residues of biotin labelled histone4 substrate and tritiated 3H-S-adenosylmethionine by scintillation proximity assay
T1 sequence (Q96LA8 whole entry): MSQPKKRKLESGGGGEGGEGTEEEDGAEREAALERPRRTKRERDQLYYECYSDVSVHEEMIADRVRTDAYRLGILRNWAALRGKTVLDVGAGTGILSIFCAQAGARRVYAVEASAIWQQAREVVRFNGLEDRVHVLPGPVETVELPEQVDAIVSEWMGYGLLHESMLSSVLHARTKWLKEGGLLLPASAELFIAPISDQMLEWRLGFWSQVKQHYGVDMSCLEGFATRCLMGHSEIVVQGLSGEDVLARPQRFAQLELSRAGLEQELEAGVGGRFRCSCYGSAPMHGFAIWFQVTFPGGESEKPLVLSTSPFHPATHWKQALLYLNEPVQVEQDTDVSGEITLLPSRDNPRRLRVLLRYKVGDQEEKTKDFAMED

[2] = target: T2, Histone-arginine methyltransferase CARM1 (Homo sapiens, UniProt Q86X55); assay: (§1) Inhibition of CARM1 (unknown origin) using 24 residues of biotin labelled histone4 substrate and tritiated 3H-S-adenosylmethionine by scintillation proximity assay
T2 sequence (Q86X55 whole entry): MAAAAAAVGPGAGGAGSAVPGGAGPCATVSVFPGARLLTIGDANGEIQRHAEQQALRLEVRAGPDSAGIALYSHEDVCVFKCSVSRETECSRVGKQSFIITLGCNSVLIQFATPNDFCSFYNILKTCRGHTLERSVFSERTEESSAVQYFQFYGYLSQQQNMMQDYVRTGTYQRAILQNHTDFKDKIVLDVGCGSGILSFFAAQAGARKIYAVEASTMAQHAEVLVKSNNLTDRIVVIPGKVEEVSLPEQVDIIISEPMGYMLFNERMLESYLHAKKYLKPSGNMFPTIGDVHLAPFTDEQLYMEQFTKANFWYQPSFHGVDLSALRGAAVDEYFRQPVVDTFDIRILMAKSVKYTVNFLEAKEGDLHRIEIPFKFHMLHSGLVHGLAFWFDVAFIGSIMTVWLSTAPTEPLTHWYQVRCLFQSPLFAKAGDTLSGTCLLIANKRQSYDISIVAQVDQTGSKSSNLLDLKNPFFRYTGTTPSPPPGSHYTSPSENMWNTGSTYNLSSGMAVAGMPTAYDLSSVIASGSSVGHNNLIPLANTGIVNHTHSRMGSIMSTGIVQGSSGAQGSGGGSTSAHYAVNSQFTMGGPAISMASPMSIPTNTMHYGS

[3] = target: Protein arginine N-methyltransferase 3 (Homo sapiens, UniProt O60678); assay: Inhibition of human PRMT3 using 24 residues of biotin labelled histone4 substrate and tritiated 3H-S-adenosylmethionine by scintillation proximity assay
Chain of Protein arginine N-methyltransferase 3 (O60678 whole entry): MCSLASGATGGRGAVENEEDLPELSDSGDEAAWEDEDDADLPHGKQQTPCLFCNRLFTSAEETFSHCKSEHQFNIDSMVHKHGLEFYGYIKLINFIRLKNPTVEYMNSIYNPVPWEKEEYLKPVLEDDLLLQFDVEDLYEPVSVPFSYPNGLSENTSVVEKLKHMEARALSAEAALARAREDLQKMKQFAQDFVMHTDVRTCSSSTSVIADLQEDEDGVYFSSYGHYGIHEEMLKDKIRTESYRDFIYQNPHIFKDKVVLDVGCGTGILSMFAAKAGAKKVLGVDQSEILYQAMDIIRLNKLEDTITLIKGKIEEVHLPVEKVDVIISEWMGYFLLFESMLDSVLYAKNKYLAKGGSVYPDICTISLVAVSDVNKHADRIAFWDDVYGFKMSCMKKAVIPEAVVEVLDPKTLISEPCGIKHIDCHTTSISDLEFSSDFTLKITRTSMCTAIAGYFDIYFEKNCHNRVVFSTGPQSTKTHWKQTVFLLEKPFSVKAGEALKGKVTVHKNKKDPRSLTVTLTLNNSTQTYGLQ

[4] = target: T2, Histone-arginine methyltransferase CARM1; assay: Inhibition of human PRMT4 using 24 residues of biotin labelled histone4 substrate and tritiated 3H-S-adenosylmethionine by scintillation proximity assay
[5] = target: Protein arginine N-methyltransferase 5 (Homo sapiens, UniProt O14744); assay: Inhibition of human PRMT5 using 24 residues of biotin labelled histone4 substrate and tritiated 3H-S-adenosylmethionine by scintillation proximity assay
Chain of Protein arginine N-methyltransferase 5 (O14744 whole entry): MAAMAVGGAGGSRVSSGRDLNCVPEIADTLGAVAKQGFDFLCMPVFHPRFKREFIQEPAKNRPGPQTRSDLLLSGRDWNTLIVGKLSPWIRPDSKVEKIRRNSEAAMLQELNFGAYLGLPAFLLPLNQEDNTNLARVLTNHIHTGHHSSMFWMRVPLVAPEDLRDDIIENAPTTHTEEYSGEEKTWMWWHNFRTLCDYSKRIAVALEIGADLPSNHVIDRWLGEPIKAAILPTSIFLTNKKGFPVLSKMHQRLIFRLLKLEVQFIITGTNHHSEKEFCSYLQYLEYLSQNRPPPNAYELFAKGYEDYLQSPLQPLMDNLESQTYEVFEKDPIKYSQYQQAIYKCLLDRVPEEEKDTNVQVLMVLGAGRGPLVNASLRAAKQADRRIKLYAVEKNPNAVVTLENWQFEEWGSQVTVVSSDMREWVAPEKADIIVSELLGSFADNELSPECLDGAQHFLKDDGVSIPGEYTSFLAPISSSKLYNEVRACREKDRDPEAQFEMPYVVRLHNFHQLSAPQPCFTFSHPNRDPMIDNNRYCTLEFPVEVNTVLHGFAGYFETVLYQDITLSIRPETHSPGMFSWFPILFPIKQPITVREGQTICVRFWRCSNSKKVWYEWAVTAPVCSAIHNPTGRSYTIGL

[6] = target: T3, Protein arginine N-methyltransferase 7 (Homo sapiens, UniProt Q9NVM4); assay: Inhibition of human PRMT7 using 24 residues of biotin labelled histone4 substrate and tritiated 3H-S-adenosylmethionine by scintillation proximity assay
T3 sequence (Q9NVM4 whole entry): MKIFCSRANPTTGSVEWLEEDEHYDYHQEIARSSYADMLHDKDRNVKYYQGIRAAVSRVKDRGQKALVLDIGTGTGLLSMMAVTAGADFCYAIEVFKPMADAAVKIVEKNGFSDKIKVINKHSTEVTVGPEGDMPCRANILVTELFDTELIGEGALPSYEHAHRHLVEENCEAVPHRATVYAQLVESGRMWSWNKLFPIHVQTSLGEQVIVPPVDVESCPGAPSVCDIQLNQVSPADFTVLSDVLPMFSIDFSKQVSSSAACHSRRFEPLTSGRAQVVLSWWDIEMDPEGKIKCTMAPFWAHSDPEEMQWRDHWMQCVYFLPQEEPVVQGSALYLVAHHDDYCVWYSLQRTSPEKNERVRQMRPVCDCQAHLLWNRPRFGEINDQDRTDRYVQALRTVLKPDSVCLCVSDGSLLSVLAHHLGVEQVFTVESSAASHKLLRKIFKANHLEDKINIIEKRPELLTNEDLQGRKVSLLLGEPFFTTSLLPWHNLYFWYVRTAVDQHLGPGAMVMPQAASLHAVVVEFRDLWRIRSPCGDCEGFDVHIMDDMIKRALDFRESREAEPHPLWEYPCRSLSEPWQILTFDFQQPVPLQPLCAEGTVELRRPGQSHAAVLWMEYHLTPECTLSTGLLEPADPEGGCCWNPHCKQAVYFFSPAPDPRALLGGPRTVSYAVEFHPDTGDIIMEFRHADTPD

[7] = target: Protein arginine N-methyltransferase 8 (Homo sapiens, UniProt Q9NR22); assay: Inhibition of human PRMT8 using 24 residues of biotin labelled histone4 substrate and tritiated 3H-S-adenosylmethionine by scintillation proximity assay
Chain of Protein arginine N-methyltransferase 8 (Q9NR22 whole entry): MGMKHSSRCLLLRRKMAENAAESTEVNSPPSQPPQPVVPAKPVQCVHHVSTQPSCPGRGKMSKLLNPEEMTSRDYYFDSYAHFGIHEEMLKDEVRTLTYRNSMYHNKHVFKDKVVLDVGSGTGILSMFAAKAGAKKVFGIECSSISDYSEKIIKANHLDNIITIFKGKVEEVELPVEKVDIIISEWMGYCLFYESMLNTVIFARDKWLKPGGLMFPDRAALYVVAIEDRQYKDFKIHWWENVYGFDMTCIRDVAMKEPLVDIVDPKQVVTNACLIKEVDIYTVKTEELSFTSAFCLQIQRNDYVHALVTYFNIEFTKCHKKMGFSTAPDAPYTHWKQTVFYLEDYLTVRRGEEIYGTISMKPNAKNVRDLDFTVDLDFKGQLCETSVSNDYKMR

[8] = target: Protein arginine N-methyltransferase 6 (Homo sapiens, UniProt Q96LA8, L267E); assay: Inhibition of PRMT6 L267E mutant (unknown origin) using 24 residues of biotin labelled histone4 substrate and tritiated 3H-S-adenosylmethionine by scintillation proximity assay
Chain of Protein arginine N-methyltransferase 6 (Homo sapiens, UniProt Q96LA8, L267E) (Q96LA8 whole entry L267E): as the sequence (Q96LA8 whole entry) above, with L267E counted along it

[9] = target: T1, Protein arginine N-methyltransferase 6; assay: Inhibition of FLAG-tagged human PRMT6 expressed in HEK293 cells assessed as reduction in H3R2 global methylation incubated for 20 hrs by Western blot method; assay type: cell-based
[10] = target: T1, Protein arginine N-methyltransferase 6; assay: Binding affinity to Inhibition of N-terminal hexa-His tagged human PRMT6 expressed in Sf9 cells by ITC method
[11] = target: Protein arginine N-methyltransferase 1 (Homo sapiens, UniProt Q99873); assay: Inhibition of human PRMT1 using 24 residues of biotin labelled histone4 substrate and tritiated 3H-S-adenosylmethionine by scintillation proximity assay
Chain of Protein arginine N-methyltransferase 1 (Q99873 whole entry): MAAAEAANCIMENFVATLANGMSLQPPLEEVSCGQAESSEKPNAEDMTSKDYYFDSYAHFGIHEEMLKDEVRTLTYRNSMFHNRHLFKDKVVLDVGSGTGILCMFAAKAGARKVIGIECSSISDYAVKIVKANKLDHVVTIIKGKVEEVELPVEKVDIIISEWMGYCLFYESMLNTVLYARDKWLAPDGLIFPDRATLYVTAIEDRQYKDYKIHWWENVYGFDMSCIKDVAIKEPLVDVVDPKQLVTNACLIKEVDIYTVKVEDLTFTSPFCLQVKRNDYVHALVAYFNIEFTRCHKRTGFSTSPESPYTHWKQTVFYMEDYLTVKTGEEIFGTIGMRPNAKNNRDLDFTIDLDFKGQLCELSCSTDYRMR

[12] = target: T4, Histone-arginine methyltransferase CARM1 (Homo sapiens) (UniProt Q86X55); assay: as §1
T4 sequence (whole entry): T2 sequence (Q86X55 whole entry)

[13] = target: T2, Histone-arginine methyltransferase CARM1; assay: Inhibition of GST-tagged CARM1 (unknown origin) using tritiated S-adenosylmethionine as substrate at 6 nM by methylation- based filter assay

Nc1ccc(S(=O)(=O)Nc2nccs2)cc1 [SULFATHIAZOLE]
IC50 [1]: 430 µM

NCCN1CCC(Cc2ccccc2)CC1
IC50 [2]: 1 µM | IC50 [1]: 0.23 µM | IC50 [3]: 19 µM | IC50 [4]: 1 µM | IC50 [5]: Not Active | IC50 [6]: Not Active | IC50 [7]: 2.1 µM | IC50 [8]: 0.39 µM | IC50 [9]: 21 µM | Kd [10]: 0.97 µM

CNCCN(C)C
IC50 [2]: 3 µM | IC50 [1]: 5 µM | IC50 [3]: 35 µM | IC50 [4]: 3 µM | IC50 [5]: Not Active | IC50 [6]: Not Active | IC50 [7]: 7 µM

CNCc1cccc(-c2ccco2)c1
IC50 [1]: 146 µM

CNCCN1CCC(C)CC1
IC50 [2]: 0.2 µM | IC50 [11]: 48 µM | IC50 [3]: > 500 µM | IC50 [4]: 0.2 µM | IC50 [5]: Not Active | IC50 [6]: Not Active | IC50 [7]: 15 µM

Cc1nc(N)sc1-n1ccc(C(F)(F)F)n1
IC50 [1]: 46 µM

CNCCN1CCC(c2ccc3[nH]c(-c4ccccc4OC)c(Cl)c3c2)CC1
inhibition [12]: Active

CCNC(=O)[C@@H](C)N
IC50 [2]: 105 µM | IC50 [1]: > 200 µM | IC50 [11]: > 1000 µM | IC50 [3]: > 1000 µM | IC50 [4]: 105 µM | IC50 [5]: Not Active | IC50 [6]: Not Active | IC50 [7]: > 200 µM

C[C@@H](N)C(=O)NCc1cccc(-n2nc(C(F)(F)F)cc2-c2nnc(-c3cccc4[nH]ccc34)o2)c1
IC50 [13]: 0.027 µM

CNCc1cccc(-c2cccnc2)c1
IC50 [1]: 104 µM
